Where two headings read alike, the source gives them in different places.

In assay [1] the test system is MV4:11 human cancer cell lines. Nature of the assay: Anti-proliferative activity, CellTiter-Glo viability assay, 7 day protocol. It counts as cell-based. The conditions noted are these: Homo sapiens, MV4-11, 168 h, MV4:11 cells, 7 day incubation, read-out: GI50 on cellular proliferation of MV4:11 human cancer cell lines. The gist of the method: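 MV4:11 cells seeded at 3600 cells/ml and exposed to compounds for 7 days, 0.1% DMSO final. Viability measured by CellTiter-Glo luminescence. GI50 from three biological replicates, each in technical triplicate, given as mean ± S.E.M.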
On the technique in general: In ATP-based viability assays light output follows the ATP content of the culture.

The target in the next assay is WDR5 (Homo sapiens (Human), UniProt P61964). As to the kind of experiment: TR-FRET binding assay (displacement of 10mer-Thr-FAM probe from WDR5). For orientation: TR-FRET usually uses a lanthanide donor and a delayed reading to cut background.
Setting [2] is: read-out: Ki for Inhibition of WDR5 by TR-FRET assay, TR-FRET, 10mer-Thr-FAM probe, WDR5-His tag 2 nM, pH 7.0.
Where [3] appears, read: read-out: Ki for Inhibition of WDR5 by TR-FRET assay.

As a reminder, the Ki is a measure of affinity in units of concentration, obtained from inhibition or displacement. With `Cc1cc([C@@H](NC(=O)c2cc(Cn3ccoc3=N)cc(-c3cn(C(C)C)nc3C(F)(F)F)c2)C2CC2)ccc1F` [Example 291, (S)—N-(Cyclopropyl(4-fluoro-3-methylphenyl)methyl)-3-((2-iminooxazol-3(2H)-yl)methyl)-5-(1-isopropyl-3-(trifluromethyl)-1H-pyrazol-4-yl)benzamide], the GI50 in assay [1] is < 100 nM. The Ki on WDR5 (setting [2]) was < 0.1 nM.
Consider `CCn1cc(-c2cc(Cn3ccoc3=N)cc(C(=O)NCc3ccc(F)c(C)c3)c2)c(C(F)(F)F)n1` [Example 294, 3-(1-Ethyl-3-(trifluoromethyl)-1H-pyrazol-4-yl)-N-(4-fluoro-3-methylbenzyl)-5-((2-iminooxazol-3(2H)-yl)methyl)benzamide], for which the GI50 in assay [1] was < 100 nM. For the same compound, the Ki on WDR5 (setting [3]) was < 0.1 nM.
The matching figures for `CCn1cc(-c2cc(CN3CCOC3=N)cc(C(=O)NCc3ccc(F)c(C)c3)c2)c(C(F)(F)F)n1` [Example 295, 3-(1-Ethyl-3-(trifluoromethyl)-1H-pyrazol-4-yl)-N-(4-fluoro-3-methylbenzyl)-5-((2-iminooxazolidin-3-yl)methyl)benzamide]: < 100 nM and < 0.1 nM.
Take `CCn1cc(-c2cc(Cn3ccoc3=N)cc(C(=O)N[C@H](c3ccc(F)c(Cl)c3)C3CC3)c2)c(C(F)(F)F)n1` [Example 298, (S)—N-((3-Chloro-4-fluorophenyl)(cyclopropyl)methyl)-3-(1-ethyl-3-(trifluoromethyl)-1H-pyrazol-4-yl)-5-((2-iminooxazol-3(2H)-yl)methyl)benzamide]: the GI50 in assay [1] was < 100 nM. Also, the Ki on WDR5 (setting [2]) is < 0.1 nM.
As to `Cc1cc([C@@H](NC(=O)c2cc(Cn3ccoc3=N)cc(-c3cn(C)nc3C(F)(F)F)c2)C2CC2)ncc1F` [Example 299, (S)—N-(Cyclopropyl(5-fluoro-4-methylpyridin-2-yl)methyl)-3-((2-iminooxazol-3(2H)-yl)methyl)-5-(1-methyl-3-(trifluoromethyl)-1H-pyrazol-4-yl)benzamide], the GI50 in assay [1] is < 100 nM. For the same compound, on WDR5 (setting [2]), the Ki is < 0.1 nM.
With `Cc1cc([C@@H](NC(=O)c2cc(CN3CCOC3=N)cc(-c3cn(C)nc3C(F)(F)F)c2)C2CC2)ncc1F` [Example 300, (S)—N-(Cyclopropyl(5-fluoro-4-methylpyridin-2-yl)methyl)-3-((2-iminooxazolidin-3-yl)methyl)-5-(1-methyl-3-(trifluoromethyl)-1H-pyrazol-4-yl)benzamide], the GI50 in assay [1] is < 100 nM. At WDR5 (setting [2]), the Ki was < 0.1 nM.
On to `N=C1OCCN1Cc1cc(C(=O)N[C@H](c2ccc(Cl)c(F)c2)C2CC2)cc(-c2ccc(F)cc2Cl)c1` [Example 301, (S)-2′-Chloro-N-((4-chloro-3-fluorophenyl)(cyclopropyl)methyl)-4′-fluoro-5-((2-iminooxazolidin-3-yl)methyl)-[1,1′-biphenyl]-3-carboxamide], for which the GI50 in assay [1] was 270 nM. In addition, the Ki at WDR5 (setting [2]) was < 0.1 nM.
Take `CCOc1c(C(=O)N[C@@H](C)c2ccc(F)c(C)c2)cc(CN2CCOC2=N)cc1-c1cn(C)nc1C(F)(F)F` [Example 302, (S)-2-Ethoxy-N-(1-(4-fluoro-3-methylphenyl)ethyl)-5-((2-iminooxazolidin-3-yl)methyl)-3-(1-methyl-3-(trifluoromethyl)-1H-pyrazol-4-yl)benzamide]: the GI50 in assay [1] was < 100 nM. Further, the Ki on WDR5 (setting [2]) is < 0.1 nM.
For the compound `CCOc1c(C(=O)N[C@H](c2ccc(F)c(C)c2)C2CC2)cc(CN2CCOC2=N)cc1-c1cn(C)nc1C(F)(F)F` [Example 303, (S)—N-(Cyclopropyl(4-fluoro-3-methylphenyl)methyl)-2-ethoxy-5-((2-iminooxazolidin-3-yl)methyl)-3-(1-methyl-3-(trifluoromethyl)-1H-pyrazol-4-yl)benzamide], in assay [1], the GI50 was < 100 nM. Moreover, the Ki on WDR5 (setting [2]) is < 0.1 nM.
In the case of `COc1cc([C@@H](NC(=O)c2cc(CN3CCOC3=N)cc(-c3cccnc3C(F)(F)F)c2)C2CC2)ccc1F` [Example 305, (S)—N-(Cyclopropyl(4-fluoro-3-methoxyphenyl)methyl)-3-((2-iminooxazolidin-3-yl)methyl)-5-(2-(trifluoromethyl)pyridin-3-yl)benzamide], the GI50 in assay [1] was < 100 nM. In addition, the Ki on WDR5 (setting [2]) is < 0.1 nM.
As to `COc1cc([C@@H](NC(=O)c2cc(Cn3ccoc3=N)cc(-c3cn(C)nc3C(F)(F)F)c2)C2CC2)ncc1F` [Example 306, (S)—N-(Cyclopropyl(5-fluoro-4-methoxypyridin-2-yl)methyl)-3-((2-iminooxazol-3(2H)-yl)methyl)-5-(1-methyl-3-(trifluoromethyl)-1H-pyrazol-4-yl)benzamide], the GI50 in assay [1] stood at 410 nM. In addition, the Ki on WDR5 is < 0.1 nM.
Take `COc1cc(CNC(=O)c2cc(CN3CCSC3=N)cc(-c3ccc(F)cc3C)c2)cc(OC)c1` [Example 308, N-(3,5-Dimethoxybenzyl)-4′-fluoro-5-((2-iminothiazolidin-3-yl)methyl)-2′-methyl-[1,1′-biphenyl]-3-carboxamide]: the GI50 in assay [1] is 630 nM. Besides, the Ki at WDR5 (setting [3]) is 0.45 nM.
For the compound `N=C1SCCN1Cc1cc(C(=O)N[C@H](c2ccc(Cl)c(Cl)c2)C2CC2)cc(-c2ccc(F)cc2OC(F)F)c1` [Example 309, (S)—N-(Cyclopropyl(3,4-dichlorophenyl)methyl)-2′-(difluoromethoxy)-4′-fluoro-5-((2-iminothiazolidin-3-yl)methyl)-[1,1′-biphenyl]-3-carboxamide], the GI50 in assay [1] was 960 nM. In addition, the Ki on WDR5 (setting [3]) turned out to be 0.77 nM.
`Cn1cc(-c2cc(CN3CCSC3=N)cc(C(=O)N[C@H](c3ccc(Cl)c(Cl)c3)C3CC3)c2)c(C(F)(F)F)n1` [Example 310, (S)—N-(Cyclopropyl(3,4-dichlorophenyl)methyl)-3-((2-iminothiazolidin-3-yl)methyl)-5-(1-methyl-3-(trifluoromethyl)-1H-pyrazol-4-yl)benzamide]: the GI50 in assay [1] turned out to be 170 nM. In addition, the Ki on WDR5 (setting [3]) was < 0.1 nM.
For `CCn1cc(-c2cc(CN3CCSC3=N)cc(C(=O)N[C@H](c3ccc(F)c(C)c3)C3CC3)c2)c(C(F)(F)F)n1` [Example 312, (S)—N-(Cyclopropyl (4-fluoro-3-methylphenyl)methyl)-3-(1-ethyl-3-(trifluoromethyl)-1H-pyrazol-4-yl)-5-((2-iminothiazolidin-3-yl)methyl)benzamide], the GI50 in assay [1] is < 100 nM. Also, on WDR5 (setting [2]), the Ki was < 0.1 nM.
For the compound `CCn1cc(-c2cc(Cn3ccsc3=N)cc(C(=O)N[C@H](c3ccc(F)c(C)c3)C3CC3)c2)c(C(F)(F)F)n1` [Example 320, (S)—N-(Cyclopropyl(4-fluoro-3-methylphenyl)methyl)-3-(1-ethyl-3-(trifluoromethyl)-1H-pyrazol-4-yl)-5-((2-iminothiazol-3(2H)-yl)methyl)benzamide], in assay [1], the GI50 was < 100 nM. The Ki on WDR5 (setting [2]) is < 0.1 nM.
`Cc1cc([C@@H](NC(=O)c2cc(Cn3ccsc3=N)cc(-c3cn(C)nc3C(F)(F)F)c2)C2CC2)ccc1F` [Example 321, (S)—N-(Cyclopropyl(4-fluoro-3-methylphenyl)methyl)-3-((2-iminothiazol-3(2H)-yl)methyl)-5-(1-methyl-3-(trifluoromethyl)-1H-pyrazol-4-yl)benzamide]: the GI50 in assay [1] was < 100 nM. The Ki on WDR5 (setting [2]) was < 0.1 nM.

The record behind these values is patent publication US10844044B2 (Vanderbilt University, priority 2018, dated 2020).
